Measured values: the supplement of paper PMC11208160

Assay: recombinant UMI read abundance after kanamycin selection (control-corrected) (log10(CPM+1)); higher = more efficient recombination; extreme values may be limits of the assay; sequences stand for … in AGTGCAGAGAAAATCGGCCAGTTTTCTCTGCCTGCAGTCCGCATGCCGTGGGACCCCTTGGGTTCTAACCTGTTGCCTAGATTTATGCAGCGGACTGCCTTTCTCCCAAAGTGATAAACCGG…AGGTTGGTTTCACT; site = the 11-nt donor
How it was run: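 Values are reported as log10(CPM+1), obtained by converting sequencing counts to CPM, averaging replicates and scaling by control-derived factors. The counts came from recombinant UMIs amplified by PCR across the donor–target junction. These UMIs came from a pooled Escherichia coli screen of donor and donor-binding-loop pairs for the IS621 bridge recombinase, plated with IPTG (0.07 mM) plus kanamycin or left unselected, in two replicates each.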
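Note: IS621 bridge recombinase in Escherichia coli cells against a fixed T5 target plasmid.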

Sequence	recombinant UMI read abundance (log10)
TCCACTGCATGGACCGGTTTTCCCGGTAATCCGTATTTGCG (site TCCACGGCTCG)	0.00658
TCCACTGCATGGACCGGTTTTCCCGGTAATCCGTATTTGCG (site TCCACTGCTCG)	0.0111
TCCAGCACATGGACCGGTTTTCCCGGTAATCCGTATTTGTG (site TCCAGCACTCA)	0.0248
TCCAGCGCATGGACCGGTTTTCCCGGTAATCCGTATTTGCG (site TCCAACGCTCG)	0
TCCAGCGCATGGACCGGTTTTCCCGGTAATCCGTATTTGCG (site TCCACCGCTCG)	0.0119
TCCAGCGCATGGACCGGTTTTCCCGGTAATCCGTATTTGCG (site TCCAGCGCTCG)	0.0428
TCCAGCGCATGGACCGGTTTTCCCGGTAATCCGTATTTGCG (site TCCATCGCTCG)	0.00909
TCCAGTTCATGGACCGGTTTTCCCGGTAATCCGTATTTGCC (site TCCAATTCTGG)	0
TCCAGTTCATGGACCGGTTTTCCCGGTAATCCGTATTTGCC (site TCCACTTCTGG)	0
TCCAGTTCATGGACCGGTTTTCCCGGTAATCCGTATTTGCC (site TCCAGTTCTGG)	0
TCCAGTTCATGGACCGGTTTTCCCGGTAATCCGTATTTGCC (site TCCATTTCTGG)	0
TCCATAACATGGACCGGTTTTCCCGGTAATCCGTATTTGGG (site TCCATAACTCC)	0.008
TCCATGCCATGGACCGGTTTTCCCGGTAATCCGTATTTGAT (site TCCATGCCTAT)	0
TCCATTCCATGGACCGGTTTTCCCGGTAATCCGTATTTGAT (site TCCATTCCTAT)	0
TCCCATACATGGACCGGTTTTCCCGGTAATCCGTATTTGCG (site TCCCATACTCG)	0.00752
TCCCATTCATGGACCGGTTTTCCCGGTAATCCGTATTTGCC (site TCCAATTCTGG)	0
TCCCATTCATGGACCGGTTTTCCCGGTAATCCGTATTTGCC (site TCCCATTCTGG)	0
TCCCATTCATGGACCGGTTTTCCCGGTAATCCGTATTTGCC (site TCCGATTCTGG)	0
TCCCATTCATGGACCGGTTTTCCCGGTAATCCGTATTTGCC (site TCCTATTCTGG)	0
TCCCCAACATGGACCGGTTTTCCCGGTAATCCGTATTTGTT (site TCCCCAACTAA)	0.0153
TCCCGCTCATGGACCGGTTTTCCCGGTAATCCGTATTTGCC (site TCCCGCTCTGG)	0
TCCCTGACATGGACCGGTTTTCCCGGTAATCCGTATTTGGA (site TCCCTGACTTC)	0.0122
TCCGATTCATGGACCGGTTTTCCCGGTAATCCGTATTTGAG (site TCCGATTCTCT)	0.00583
TCCGATTCATGGACCGGTTTTCCCGGTAATCCGTATTTGCC (site TCCAATTCTGG)	0
TCCGATTCATGGACCGGTTTTCCCGGTAATCCGTATTTGCC (site TCCCATTCTGG)	0

Sequence	recombinant UMI read abundance (log10)
TCCGATTCATGGACCGGTTTTCCCGGTAATCCGTATTTGCC (site TCCGATTCTGG)	0
TCCGATTCATGGACCGGTTTTCCCGGTAATCCGTATTTGCC (site TCCTATTCTGG)	0
TCCGCAGCATGGACCGGTTTTCCCGGTAATCCGTATTTGAA (site TCCGCAGCTTT)	0.0198
TCCGCATCATGGACCGGTTTTCCCGGTAATCCGTATTTGGG (site TCCGCATCTCC)	0.00533
TCCGCGACATGGACCGGTTTTCCCGGTAATCCGTATTTGTA (site TCCGCGACTTA)	0.0159
TCCGCTACATGGACCGGTTTTCCCGGTAATCCGTATTTGTC (site TCCGCTACTGA)	0
TCCGGGCCATGGACCGGTTTTCCCGGTAATCCGTATTTGGG (site TCCGGGCCTCC)	0.0269
TCCTACGCATGGACCGGTTTTCCCGGTAATCCGTATTTGAA (site TCCTACGCTTT)	0.0256
TCCTACTCATGGACCGGTTTTCCCGGTAATCCGTATTTGCA (site TCATACTCTTG)	0
TCCTACTCATGGACCGGTTTTCCCGGTAATCCGTATTTGCA (site TCCTACTCTTG)	0
TCCTACTCATGGACCGGTTTTCCCGGTAATCCGTATTTGCA (site TCGTACTCTTG)	0
TCCTACTCATGGACCGGTTTTCCCGGTAATCCGTATTTGCA (site TCTTACTCTTG)	0
TCCTAGGCATGGACCGGTTTTCCCGGTAATCCGTATTTGGT (site TACTAGGCTAC)	0.0272
TCCTAGGCATGGACCGGTTTTCCCGGTAATCCGTATTTGGT (site TCCTAGGCTAC)	0.0125
TCCTAGGCATGGACCGGTTTTCCCGGTAATCCGTATTTGGT (site TGCTAGGCTAC)	0.0178
TCCTAGGCATGGACCGGTTTTCCCGGTAATCCGTATTTGGT (site TTCTAGGCTAC)	0.0363
TCCTGCCCATGGACCGGTTTTCCCGGTAATCCGTATTTGCT (site TCCTGCCCTAG)	0
TCCTGGCCATGGACCGGTTTTCCCGGTAATCCGTATTTGTG (site TCCTGGCCTCA)	0.00405
TCCTGTTCATGGACCGGTTTTCCCGGTAATCCGTATTTGTC (site TCCTGTTCTGA)	0
TCCTTCTCATGGACCGGTTTTCCCGGTAATCCGTATTTGGG (site ACCTTCTCTCC)	0.0101
TCCTTCTCATGGACCGGTTTTCCCGGTAATCCGTATTTGGG (site CCCTTCTCTCC)	0.00366
TCCTTCTCATGGACCGGTTTTCCCGGTAATCCGTATTTGGG (site GCCTTCTCTCC)	0.104
TCCTTCTCATGGACCGGTTTTCCCGGTAATCCGTATTTGGG (site TCCTTCTCTCC)	0.0162
TCCTTTACATGGACCGGTTTTCCCGGTAATCCGTATTTGTT (site TCCTTTACTAA)	0.0163
TCGAACGCATGGACCGGTTTTCCCGGTAATCCGTATTTGCG (site TCGAACGCTCG)	0.00434

Sequence	recombinant UMI read abundance (log10)
TCGAAGACATGGACCGGTTTTCCCGGTAATCCGTATTTGCA (site AGGAAGACTTG)	0.13
TCGAAGACATGGACCGGTTTTCCCGGTAATCCGTATTTGCA (site TCGAAGACTTG)	1.88
TCGAATACATGGACCGGTTTTCCCGGTAATCCGTATTTGCA (site TAGAATACTTG)	0.211
TCGAATACATGGACCGGTTTTCCCGGTAATCCGTATTTGCA (site TCGAATACTTG)	0
TCGAATACATGGACCGGTTTTCCCGGTAATCCGTATTTGCA (site TGGAATACTTG)	0.0214
TCGAATACATGGACCGGTTTTCCCGGTAATCCGTATTTGCA (site TTGAATACTTG)	0
TCGAATCCATGGACCGGTTTTCCCGGTAATCCGTATTTGAG (site TCGAATCCTCT)	0.516
TCGACACCATGGACCGGTTTTCCCGGTAATCCGTATTTGGA (site TCGACACCTTC)	0.0336
TCGACTTCATGGACCGGTTTTCCCGGTAATCCGTATTTGTG (site TCGACTTCTCA)	0
TCGATTACATGGACCGGTTTTCCCGGTAATCCGTATTTGGA (site TCGATTACTTC)	0.277
TCGCACACATGGACCGGTTTTCCCGGTAATCCGTATTTGCG (site TCGCACACTCG)	0.00409
TCGCCTACATGGACCGGTTTTCCCGGTAATCCGTATTTGTG (site TCGCCTACTCA)	0.00919
TCGGCTACATGGACCGGTTTTCCCGGTAATCCGTATTTGCC (site TCGGCTACTGG)	0
TCGGGCGCATGGACCGGTTTTCCCGGTAATCCGTATTTGTC (site TCGGGCGCTGA)	2.19
TCGGGTGCATGGACCGGTTTTCCCGGTAATCCGTATTTGGA (site TCGGGTGCTTC)	0.157
TCGGTTACATGGACCGGTTTTCCCGGTAATCCGTATTTGTT (site TCGGTTACTAA)	0.835
TCGTACTCATGGACCGGTTTTCCCGGTAATCCGTATTTGCA (site TCATACTCTTG)	2.44
TCGTACTCATGGACCGGTTTTCCCGGTAATCCGTATTTGCA (site TCCTACTCTTG)	2.28
TCGTACTCATGGACCGGTTTTCCCGGTAATCCGTATTTGCA (site TCGTACTCTTG)	2.38
TCGTACTCATGGACCGGTTTTCCCGGTAATCCGTATTTGCA (site TCTTACTCTTG)	2.29
TCGTCATCATGGACCGGTTTTCCCGGTAATCCGTATTTGAC (site TCGTCATCTGT)	0
TCGTCGCCATGGACCGGTTTTCCCGGTAATCCGTATTTGCA (site TCGTCGCCTTG)	0.00504
TCGTTAGCATGGACCGGTTTTCCCGGTAATCCGTATTTGTG (site ACGTTAGCTCA)	0.00928
TCGTTAGCATGGACCGGTTTTCCCGGTAATCCGTATTTGTG (site CCGTTAGCTCA)	0
TCGTTAGCATGGACCGGTTTTCCCGGTAATCCGTATTTGTG (site GCGTTAGCTCA)	0.109
